The values below come from patent US11046651B2, “Piperazine substituted azapine derivatives and uses thereof” (Alairion, Inc., priority 2019, dated 2021).

Values joined by “and” are separate entries in the source; they are usually repeats but may differ in a detail not shown here. Equal entries are not always repeated.

The target of series [1] is H1 (Homo sapiens (Human), UniProt P35367). The series is described as follows: H1 binding assay ([3H]pyrilamine, HEK293 stable cell line membranes). The method, then:
Example 25. H1 and 5-HT2A Binding Assay Protocol
(§1) The testing compounds were diluted with DMSO, starting at 2 mM, with 8-points and 5-fold serial dilutions. Ketanserin and Pyrilamine were diluted with DMSO, starting at 0.2 mM, with 8-points and 5-fold serial dilution.
(§2) 1 μl of a compounds of the present disclosure and either reference compound (Table C) were transferred to assay plates. 1 μl of 0.2 mM Ketanserin or Pyrilamine was transferred to an assay plate according to the plate map for nonspecific binding (Low control: LC). 1 μl of DMSO was transferred to an assay plate according to plate map for total binding (High control: HC).
(§3) 100 μlof membrane stocks were dispensed into the plates, following the plate map. 100 of radio ligand was added. The plates were sealed and shaken at 300 rpm at room temperature for 1 hour. The Unifilter-96 GF/C filter plates were soaked with 50 of 0.3% PEI per well for at least 0.5 hour at room temperature.
(§4) When the binding assays were complete, the reaction mixture was filtered through GF/C plates using Perkin Elmer Filtermate Harvester, and then each plate was washed 4 times with cold wash buffer. The filter plates were dried for 1 hour at 50 degrees. After drying, the bottom of the filter plate wells were sealed using Perkin Elmer Unifilter-96 backing seal tape. 50 μl of Perkin Elmer Microscint 20 cocktail was added. The top of the filter plates were sealed with Perkin Elmer TopSeal-A sealing film.
(§5) ^3H trapped on filters were counted using Perkin Elmer MicroBeta2 Reader. Inhibition constants were calculated using the following equation:
(§6) [formula] The data was analyzed using Prism 5. The model used was “log(inhibitor) vs. response—Variable slope” to fit the data and calculate IC50. The IC50 was then converted to Ki using following equation: Ki=IC50/(1+L/Kd). L is the radioligand concentration in the reaction system; Kd is the affinity of radioligand to the receptor.

Series [2] concerns the target 5-HT2C (Homo sapiens (Human), UniProt P28335). The series is described as follows: 5-HT2C binding assay ([3H]-Mesulergine, HEK293 membranes). As to conditions: Table L, class symbols. The protocol:
5-HT2C Binding Assay Protocol
The testing compounds were diluted with DMSO, starting at 2 mM, with 8-points and 5-fold serial dilutions.
1 μL of a compound of the present disclosure the reference compound (Table J) was transferred to an assay plate. […] 1 μL of DMSO was transferred to an assay plate according to the plate map for total binding (High control: HC).
as §4, with “Unifilter-96 GF/C filter plates were soaked with 50 μL of 0.3% PEI per well for about 0.5 hours at room temperature. When” for “When”, “through the” for “through”, “GF/C filter” for “GF/C”, “and” for “and then”, “50° C.” for “50 degrees.”, “μL” for “μl”
as §5
[formula] The data was analyzed using Prism 5. The model used was “log(inhibitor) vs. response—Variable slope” to fit the data and calculate IC50. The IC50 was then converted to Ki using the following equation: Ki=IC50/(1+L/Kd), wherein L is the radioligand concentration in the reaction system; Kd is the affinity of radioligand to the receptor.

A short description of series [3]: Human clearance and half-life projections (allometric scaling from monkey clearance). As to conditions: for T1/2 (h), projected human half-life: one-compartmental model, T1/2=0.693×(predicted Vd/predicted CL); for CL (mL/min/kg), projected human clearance: single species scaling from monkey clearance. The protocol: The biological activity of the compounds of the present disclosure may be determined utilizing projected human clearance (CL) and half-life in humans. An allometric scaling method, using a single species scaling from monkey clearance was used to project clearance. Human volume of distribution (Vd) was projected from animal Vd, adjusted for differences in plasma protein binding and assuming similar unbound Vd across species. Human half-life (T1/2) was calculated based on a one-compartmental model, using a relationship of T1/2=0.693×(predicted Vd/predicted CL).
An allometric scaling method, using a single species scaling from monkey clearance was used to project clearance. Human volume of distribution (Vd) was projected from animal Vd, adjusted for differences in plasma protein binding and assuming similar unbound Vd across species. Human half-life (T1/2) was calculated based on a one-compartmental model, using a relationship of T1/2=0.693×(predicted Vd/predicted CL).

In series [4] the target is 5-HT2A (Homo sapiens (Human), UniProt P28223). The series is described as follows: 5-HT2A binding assay ([3H]-Ketanserin, HEK293 stable cell line membranes). The protocol: H1 and 5-HT2A Binding Assay Protocol
Chain of 5-HT2A (P28223 whole entry, species assumed): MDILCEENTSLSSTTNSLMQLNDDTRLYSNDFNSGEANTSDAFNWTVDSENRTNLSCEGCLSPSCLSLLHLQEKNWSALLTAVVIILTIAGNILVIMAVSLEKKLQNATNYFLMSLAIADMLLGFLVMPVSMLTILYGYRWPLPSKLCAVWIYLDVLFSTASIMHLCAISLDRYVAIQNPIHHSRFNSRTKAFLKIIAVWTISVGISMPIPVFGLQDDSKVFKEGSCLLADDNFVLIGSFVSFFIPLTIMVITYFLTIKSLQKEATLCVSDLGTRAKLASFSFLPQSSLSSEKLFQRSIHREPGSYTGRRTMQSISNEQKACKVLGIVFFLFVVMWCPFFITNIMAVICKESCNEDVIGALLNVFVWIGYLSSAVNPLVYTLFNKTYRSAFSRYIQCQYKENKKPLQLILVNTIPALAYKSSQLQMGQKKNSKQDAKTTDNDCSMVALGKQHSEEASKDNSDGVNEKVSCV
as §1, §2, §3, §4, §5, §6

Series [5] has as its system male Wistar rats. The series is described as follows: SCORE EEG/EMG sleep-wake monitoring: sleep continuity, number of arousals, depth of sleep. The format is in vivo, rat. To be noted: for normalized EEG delta power (slow wave activity) during nonREM sleep / increase in sleep bout-length per hour relative to vehicle control / cumulative increase in Total Sleep Time (NREM+REM sleep) relative to baseline: CT-18, male Wistar rats; for reductions in the number of transitions from sleep to wake per hour relative to controls: CT-5, male Wistar rats; for cumulative increase in Total Sleep Time (NREM+REM sleep) relative to baseline: 30 hours post-treatment. The method, then: Example 30. Experimental Details and Methods for Determining Sleep Continuity, Number of Arousals, and Depth of Sleep
Treatment detail plots (see, e.g., FIGS. 1-10) depict pre- and post-treatment time series plot ±30 hours before and after treatment at CT-18 (6-hours after lights-off) or pre- and post-treatment time series plots 29 hr before and 31 hr after treatments at CT-5 (5-hours after lights-on). Treatment occurred at the beginning of the hour marked by a triangle on the abscissa of the plot. Variables were computed in hourly bins.
All data were plotted as group mean±SEM (see, e.g., FIGS. 1-10). The gray shaded area encompasses the vehicle treatment mean±SEM. Along the x-axis, time of treatment is marked by a triangle unless noted otherwise. Along the x-axis, light/dark bars indicate lights on/off.
Adult, male Wistar rats (approximately 270 g at time of surgery, Charles River Laboratories) were administered dexmedetomidine 25 μg/kg and anesthetized (2% isoflourane in 95/5 oxygen, to effect) and surgically prepared with a cranial implant that permitted chronic electro-encephalogram (EEG) and electromyogram (EMG) recording. Body temperature and locomotor activity were monitored via a miniature transmitter (Minimitter Series PDT4000 E-Mitter, Bend, Oreg.) surgically placed in the abdomen during the same anesthetic event when the cranial portion was implanted. The cranial implant consisted of miniature stainless steel screws (2 frontal [+3.9 AP from bregma, 2.0 ML], 2 occipital [−6.4 AP, 5.5 ML], and 1 ground placed sagittaly and posterior to lambda) for EEG recording. Two Teflon-coated multi-strand stainless steel wires were positioned under the nuchal trapezoid muscles for EMG recording. All leads were soldered to a miniature connector (Omnetics, Minneapolis, Minn.) and gas sterilized with ethylene oxide prior to surgery. The implant assembly was affixed to the skull by the combination of the EEG recording screws, cyanoacrylate applied between the hermetically sealed implant connector and skull, and a UV-curing dental acrylic. An analgesic (meloxicam 1 mg/kg IP) was administered 1 day prior to surgery and daily for 2 days post-surgery. Neosporin with lidocaine was applied topically to the peri-implant margin. At least three weeks were allowed for surgical recovery prior to any data collection.
Rats were housed individually within specially modified Innovive® cages equipped with a custom-built ultra-low-torque slip-ring commutator and a customized Innovive® polycarbonate cage-top. These cages were located on shelves of a modified stainless steel animal rack that was pre-wired for physiological and behavioral data collection. Food and water were available ad libitum and the ambient temperature was 22±1° C. A 24-hr light-dark cycle (LD 12:12) was maintained throughout the study using LED lighting strips. Light intensity averaged 35 lux at mid-level inside the cage. Relative humidity averaged 50% approximately. Animals were undisturbed for two days before and after each treatment.
Sleep and wakefulness were determined using SCORE™—a Linux and Windows-10 real-time computer-based sleep-wake and physiological monitoring system. Validation of the SCORE™ sleep stage identification algorithm in rodents and the system's utility in pre-clinical drug discovery and evaluation have been previously described (Edgar et al. Psychopharmacology 1991, 105, 374; Gilmour et al., Neuropharmacology 2012, 64, 224; McCarthy et al., 2016, Neuropharmacology 108, 415; Olive et al., J. Pharmacology &Experimental Therapeutics 1998 285, 1073; Phillips et al, Neuropharmacology 2012, 62, 1359; Seidel et al. J Pharmacology &Experimental Therapeutics 1995, 275, 263; Van Gelder et al. Sleep 1991, 14, 48). […]

Chain of 5-HT2C (P28335 33-458): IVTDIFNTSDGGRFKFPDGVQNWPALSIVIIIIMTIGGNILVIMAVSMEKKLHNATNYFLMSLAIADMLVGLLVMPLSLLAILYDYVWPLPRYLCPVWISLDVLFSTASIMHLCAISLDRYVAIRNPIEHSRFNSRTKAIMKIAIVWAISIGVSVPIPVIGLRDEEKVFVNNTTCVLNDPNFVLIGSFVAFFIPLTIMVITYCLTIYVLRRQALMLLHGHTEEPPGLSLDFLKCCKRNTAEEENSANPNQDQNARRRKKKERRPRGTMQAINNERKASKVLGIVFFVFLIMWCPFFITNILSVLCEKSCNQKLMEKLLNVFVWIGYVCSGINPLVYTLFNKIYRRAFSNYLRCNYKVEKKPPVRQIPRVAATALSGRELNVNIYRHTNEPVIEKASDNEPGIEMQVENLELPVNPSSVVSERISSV
Chain of H1 (P35367 whole entry): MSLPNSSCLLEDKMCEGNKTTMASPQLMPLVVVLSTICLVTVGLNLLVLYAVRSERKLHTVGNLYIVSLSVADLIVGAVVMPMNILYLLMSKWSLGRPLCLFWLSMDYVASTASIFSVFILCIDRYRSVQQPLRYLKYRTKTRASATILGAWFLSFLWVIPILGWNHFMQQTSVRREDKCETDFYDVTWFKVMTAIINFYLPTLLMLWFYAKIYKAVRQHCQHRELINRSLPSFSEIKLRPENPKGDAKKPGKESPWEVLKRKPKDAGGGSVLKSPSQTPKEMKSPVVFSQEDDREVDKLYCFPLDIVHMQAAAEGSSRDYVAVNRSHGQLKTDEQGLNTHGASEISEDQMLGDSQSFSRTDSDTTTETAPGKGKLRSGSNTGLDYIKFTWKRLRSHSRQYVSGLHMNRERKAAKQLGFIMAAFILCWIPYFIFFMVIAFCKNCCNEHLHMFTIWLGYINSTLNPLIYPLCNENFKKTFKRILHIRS

One may read the Ki as the dissociation constant of the complex between target and ligand, obtained from inhibition or displacement. In the case of `Cc1ccc2c(c1)Oc1cc(F)ccc1N=C2N1CCN(CC(C)(C)C(=O)O)CC1` [Compound No. 6, 3-(4-(7-fluoro-3-methyldibenzo[b,f][1,4]oxazepin-11-yl)piperazin-1-yl)-2,2-dimethylpropanoic acid], the Ki is 1 to 25 nM in series [1] (Table E, class symbols); > 500 nM in series [2]; 1 to 25 nM in series [4] (Table F, class symbols). The “T1/2 (h), projected human half-life” value in series [3] was 12 to 25 h. Moreover, in series [3], the “CL (mL/min/kg), projected human clearance” value (“CL (mL/min/kg)” for short) came to 0.3 mL/min/kg.

As for `CC(C)(CN1CCN(C2=Nc3ccccc3Cc3ccccc32)CC1)C(=O)O` [Compound No. 8, 3-(4-(11H-dibenzo[b,e]azepin-6-yl)piperazin-1-yl)-2,2-dimethylpropanoic acid], the Ki in series [1] (Table E, class symbols) is 25 to 50 nM; in series [1] (numeric values), 46 nM; in series [2], > 500 nM; in series [4] (Table F, class symbols) it was > 50 nM; in series [4] (numeric values), ~87 nM and 87 nM. The “T1/2 (h), projected human half-life” value in series [3] is 2 to 4 h. Besides, the “CL (mL/min/kg)” value in series [3] came out at 1.8 mL/min/kg. Also, the “normalized EEG delta power (slow wave activity) during nonREM sleep” value in series [5] (3 mg/kg PO) was “increases in EEG slow wave activity in nonREM sleep”. Also, the “reductions in the number of transitions from sleep to wake per hour relative to controls” value in series [5] (10 mg/kg PO) is reported as “up to 50%”. For the same compound, the “increase in sleep bout-length per hour relative to vehicle control” value in series [5] (10 mg/kg PO) was “approximately 4 fold”. Further, the “cumulative increase in Total Sleep Time (NREM+REM sleep) relative to baseline” value was 70 min in series [5] (30 mg/kg PO, listed as Compound 8) and “approximately 70 minute” in series [5] (30 mg/kg PO, listed as compound 8).

In the case of `Cc1ccc2c(c1)Oc1cc(C(F)F)ccc1C(N1CCN(CC(C)(C)C(=O)O)CC1)=N2` [Compound No. 15, 3-(4-(3-(difluoromethyl)-7-methyldibenzo[b,f][1,4]oxazepin-11-yl)piperazin-1-yl)-2,2-dimethylpropanoic acid], the Ki in series [1] (Table E, class symbols) is > 50 nM. This compound yielded an inhibitory constant (Ki) in series [4] (Table F, class symbols) of 1 to 25 nM. Further, in series [5] (30 mg/kg PO), the “reductions in the number of transitions from sleep to wake per hour relative to controls” value was “approximately 30%”, the “increase in sleep bout-length per hour relative to vehicle control” value was “approximately 3 fold” and the “normalized EEG delta power (slow wave activity) during nonREM sleep” value is recorded as “increases in EEG slow wave activity in nonREM sleep”.

As to `CC(C)(CN1CCN(C2=Nc3ccccc3Oc3cc(C(F)F)ccc32)CC1)C(=O)O` [Compound No. 36, 3-(4-(3-(difluoromethyl)dibenzo[b,f][1,4]oxazepin-11-yl)piperazin-1-yl)-2,2-dimethylpropanoic acid], in series [3], the “T1/2 (h), projected human half-life” value was 14 to 50 h and the “CL (mL/min/kg)” value amounted to 0.4 mL/min/kg.

For `CC(C)(CN1CCN(C2=Nc3ccccc3Cc3cc(F)ccc32)CC1)C(=O)O` [Compound No. 37, 3-(4-(9-fluoro-11H-dibenzo[b,e]azepin-6-yl)piperazin-1-yl)-2,2-dimethylpropanoic acid], the inhibition constant (Ki) is > 50 nM in series [1] (Table E, class symbols); > 500 nM in series [2]; > 50 nM in series [4] (Table F, class symbols).

As to `Cc1ccc2c(c1)Cc1ccccc1C(N1CCN(CC(C)(C)C(=O)O)CC1)=N2` [Compound No. 38, 2,2-dimethyl-3-(4-(2-methyl-11H-dibenzo[b,e]azepin-6-yl)piperazin-1-yl)propanoic acid], the Ki was > 50 nM in series [1] (Table E, class symbols); < 100 nM in series [2]; > 50 nM in series [4] (Table F, class symbols).

As to `CC(C)(CN1CCN(C2=Nc3ccccc3Oc3cccc(F)c32)CC1)C(=O)O` [Compound No. 39, 3-(4-(1-fluorodibenzo[b,f][1,4]oxazepin-11-yl)piperazin-1-yl)-2,2-dimethylpropanoic acid], the Ki is > 50 nM in series [1] (Table E, class symbols); < 100 nM in series [2]; > 50 nM in series [4] (Table F, class symbols).
